Measured values taken from article PMC12196213, “New Insights into the Anticancer Effects and Toxicogenomic Safety of Two β-Lapachone Derivatives” (Pharmaceuticals, 2025).

Legend:
[1] = molecular target: CK1ε (Homo sapiens, UniProt P49674); assay: ADP-Glo kinase assay; type: biochemical; conditions: 10 µM ATP, read-out: % of residual activity; for remaining activity at 1 µM: 1 µM compound; for remaining activity at 10 µM: 10 µM compound
Method: (§1) Kinase enzymatic activities of CDK5/p25, CDK9/CyclinT, HASPIN, PIM1, GSK3β, CK1ε, ABL1, and JAK3 were assayed using the luminescent ADP detection assay described in Zegzouti et al. (ADP-GloTM assay kit provided by Promega, Madison, WI, USA). Briefly, the reactions were carried out in appropriate kinase buffer, with either protein or peptide as substrate in the presence of 10 µM ATP. Assay conditions used for each kinase tested here are described in Ibrahim et al.. The Envision (PerkinElmer, Waltham, MA, USA) microplate luminometer was used to measure the transmitted signal expressed in Relative Light Unit (RLU). In order to determine the half maximal inhibitory concentration (IC50), the assays were performed in duplicate in the absence or presence of increasing doses of the tested compounds. Kinase activities are expressed in % of maximal activity, i.e., measured in the absence of inhibitor but with a similar dose of DMSO (solvent of the tested compounds).

[2] = molecular target: ABL1 (Homo sapiens, UniProt P00519); assay: ADP-Glo kinase assay; type: biochemical; conditions: 10 µM ATP, read-out: % of residual activity; for remaining activity at 1 µM: ABL1, 1 µM compound; for remaining activity at 10 µM: ABL1, 10 µM compound
Sequence of ABL1 (P00519 whole entry): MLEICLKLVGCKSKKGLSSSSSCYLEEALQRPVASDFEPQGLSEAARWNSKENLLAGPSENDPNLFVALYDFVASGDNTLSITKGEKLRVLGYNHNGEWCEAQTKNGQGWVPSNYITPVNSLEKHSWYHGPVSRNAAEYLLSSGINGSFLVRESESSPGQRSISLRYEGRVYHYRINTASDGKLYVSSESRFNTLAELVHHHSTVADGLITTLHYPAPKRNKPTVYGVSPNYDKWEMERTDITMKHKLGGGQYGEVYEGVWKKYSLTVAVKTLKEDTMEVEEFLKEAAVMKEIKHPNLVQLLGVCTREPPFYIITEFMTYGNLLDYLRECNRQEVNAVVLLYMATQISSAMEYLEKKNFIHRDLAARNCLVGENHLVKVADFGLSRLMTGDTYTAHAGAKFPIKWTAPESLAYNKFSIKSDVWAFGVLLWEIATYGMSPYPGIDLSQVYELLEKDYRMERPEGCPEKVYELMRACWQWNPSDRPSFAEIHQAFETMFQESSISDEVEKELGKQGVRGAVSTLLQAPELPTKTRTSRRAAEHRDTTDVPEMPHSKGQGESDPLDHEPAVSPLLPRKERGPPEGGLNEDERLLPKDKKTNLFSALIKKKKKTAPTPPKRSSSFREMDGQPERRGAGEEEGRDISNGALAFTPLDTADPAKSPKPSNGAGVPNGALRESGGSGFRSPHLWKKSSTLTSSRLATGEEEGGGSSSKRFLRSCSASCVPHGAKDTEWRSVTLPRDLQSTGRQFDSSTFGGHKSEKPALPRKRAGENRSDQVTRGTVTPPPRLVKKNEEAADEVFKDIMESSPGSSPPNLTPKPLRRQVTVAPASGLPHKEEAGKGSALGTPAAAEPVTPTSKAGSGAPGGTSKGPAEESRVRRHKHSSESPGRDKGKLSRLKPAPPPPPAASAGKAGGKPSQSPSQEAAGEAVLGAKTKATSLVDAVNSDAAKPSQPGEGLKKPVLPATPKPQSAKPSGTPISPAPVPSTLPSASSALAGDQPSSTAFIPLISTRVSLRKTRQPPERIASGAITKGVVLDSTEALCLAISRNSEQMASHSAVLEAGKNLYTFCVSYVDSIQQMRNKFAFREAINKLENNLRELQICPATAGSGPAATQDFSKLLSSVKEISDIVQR
Method: as §1

[3] = molecular target: PIM1 (Homo sapiens, UniProt P11309); assay: ADP-Glo kinase assay; type: biochemical; conditions: for remaining activity at 1 µM: PIM1, 1 µM compound; for remaining activity at 1 µM / remaining activity at 10 µM: 10 µM ATP, read-out: % of residual activity; for remaining activity at 10 µM: PIM1, 10 µM compound
Sequence of PIM1 (P11309 whole entry): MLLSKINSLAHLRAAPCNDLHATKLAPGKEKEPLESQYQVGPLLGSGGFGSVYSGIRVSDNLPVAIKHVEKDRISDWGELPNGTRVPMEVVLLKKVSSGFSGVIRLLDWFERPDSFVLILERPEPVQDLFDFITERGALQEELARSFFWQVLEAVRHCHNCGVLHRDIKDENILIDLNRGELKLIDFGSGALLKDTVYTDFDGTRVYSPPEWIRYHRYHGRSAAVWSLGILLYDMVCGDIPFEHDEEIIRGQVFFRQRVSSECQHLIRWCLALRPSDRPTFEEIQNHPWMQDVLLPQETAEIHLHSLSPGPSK
Method: as §1

[4] = molecular target: T1, JAK3 (Homo sapiens, UniProt P52333); assay: ADP-Glo kinase assay; type: biochemical; conditions: for remaining activity at 1 µM: JAK3, 1 µM compound; for remaining activity at 1 µM / remaining activity at 10 µM: 10 µM ATP, read-out: % of residual activity; for remaining activity at 10 µM: JAK3, 10 µM compound
T1 sequence (P52333 1-1124): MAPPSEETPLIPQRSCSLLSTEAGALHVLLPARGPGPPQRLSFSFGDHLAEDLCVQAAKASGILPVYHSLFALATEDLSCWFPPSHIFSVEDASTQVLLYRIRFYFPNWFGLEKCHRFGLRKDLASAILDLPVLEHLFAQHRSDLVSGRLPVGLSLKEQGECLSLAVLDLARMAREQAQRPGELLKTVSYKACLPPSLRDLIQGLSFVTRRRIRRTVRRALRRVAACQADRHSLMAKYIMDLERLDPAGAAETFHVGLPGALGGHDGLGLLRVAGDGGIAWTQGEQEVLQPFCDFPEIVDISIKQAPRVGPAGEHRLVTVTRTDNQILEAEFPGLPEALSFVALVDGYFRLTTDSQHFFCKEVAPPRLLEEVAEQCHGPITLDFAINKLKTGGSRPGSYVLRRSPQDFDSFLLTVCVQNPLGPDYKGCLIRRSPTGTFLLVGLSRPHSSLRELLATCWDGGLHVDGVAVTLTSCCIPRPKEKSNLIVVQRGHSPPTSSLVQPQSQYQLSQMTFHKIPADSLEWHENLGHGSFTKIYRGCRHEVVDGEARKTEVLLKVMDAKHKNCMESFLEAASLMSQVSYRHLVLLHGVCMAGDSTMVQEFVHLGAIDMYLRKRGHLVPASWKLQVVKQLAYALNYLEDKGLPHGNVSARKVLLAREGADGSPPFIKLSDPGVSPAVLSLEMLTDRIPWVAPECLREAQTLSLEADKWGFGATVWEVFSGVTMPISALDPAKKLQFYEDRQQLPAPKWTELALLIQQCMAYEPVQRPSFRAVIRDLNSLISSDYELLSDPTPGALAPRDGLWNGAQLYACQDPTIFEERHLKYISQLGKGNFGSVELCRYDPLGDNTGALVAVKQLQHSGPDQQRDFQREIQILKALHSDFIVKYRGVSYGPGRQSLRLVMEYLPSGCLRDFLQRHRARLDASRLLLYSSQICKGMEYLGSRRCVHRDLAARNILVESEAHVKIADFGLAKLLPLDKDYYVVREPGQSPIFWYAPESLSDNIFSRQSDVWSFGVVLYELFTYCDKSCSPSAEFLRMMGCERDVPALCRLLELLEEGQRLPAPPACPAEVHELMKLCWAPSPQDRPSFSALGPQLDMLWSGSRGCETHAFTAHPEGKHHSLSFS
Method: as §1

[5] = molecular target: T2, HASPIN (Homo sapiens, UniProt Q8TF76); assay: ADP-Glo kinase assay; type: biochemical; conditions: 10 µM ATP, read-out: % of residual activity; for remaining activity at 1 µM: 1 µM compound; for remaining activity at 10 µM: 10 µM compound
T2 sequence (Q8TF76 470-798 limits assumed): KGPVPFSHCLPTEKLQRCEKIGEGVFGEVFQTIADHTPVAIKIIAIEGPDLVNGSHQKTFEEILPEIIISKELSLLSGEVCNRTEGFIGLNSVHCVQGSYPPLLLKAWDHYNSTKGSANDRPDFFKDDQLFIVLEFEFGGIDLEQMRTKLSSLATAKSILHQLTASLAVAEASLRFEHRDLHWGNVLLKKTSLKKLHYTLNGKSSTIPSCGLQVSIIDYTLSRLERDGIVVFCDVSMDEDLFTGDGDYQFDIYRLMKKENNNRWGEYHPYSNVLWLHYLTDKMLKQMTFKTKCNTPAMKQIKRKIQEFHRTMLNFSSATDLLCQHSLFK
Method: as §1

[6] = system: MDA-MB-231 (human breast adenocarcinoma); assay: MTT cytotoxicity assay, MDA-MB-231; type: cell-based; conditions: for IC50: Homo sapiens, MDA-MB-231, MDA-MD-231 (so in the source), 72 h, MTT; for selectivity index (SI): IC50 L929 / IC50 MDA-MD-231, 72 h
Method: To assess the cytotoxicity of the compounds, the MTT [3-(4,5-dimethylthiazol-2-yl)-2,5-diphenyltetrazolium bromide] assay was employed. The cells (2 × 10^5/mL) were incubated with the substances at concentrations ranging from 0.78 to 25 µg/mL. β-lap was used as a positive control. After 24, 48, or 72 h of incubation, MTT was added at a concentration of 5 mg/mL. Cell viability in different treatments was compared to the negative control using the following formula: Cell viability%=mean absorbance of treated samples/mean absorbance of negative control×100 The IC50 (the concentration that inhibits 50% of cell growth compared to the negative control) was calculated using nonlinear regression in GraphPad Prism 8.0 for Windows (GraphPad Demo Software, San Diego, CA, USA). Experiments were performed in triplicate and in two independent experiments. The protocol is also described in other previous publications. The IC50 of normal and cancer cells was used to calculate the SI of compounds BV3 and BV5. The SI indicated the selectivity of the compounds among the normal cell line (L-929) and a cancer cell line (HCT-116, MDA-MB-231, HepG2, or HeLa). SI is a crucial parameter for therapeutic applications in upcoming clinical trials. Therefore, the following formula was used to calculate SI: SI=IC50(normal cell line)/IC50(cancer cell line)

[7] = PIM1, dose–response curve, Figure 5
[8] = JAK3, dose–response curve, Figure 5

Sequence of CK1ε (P49674 whole entry): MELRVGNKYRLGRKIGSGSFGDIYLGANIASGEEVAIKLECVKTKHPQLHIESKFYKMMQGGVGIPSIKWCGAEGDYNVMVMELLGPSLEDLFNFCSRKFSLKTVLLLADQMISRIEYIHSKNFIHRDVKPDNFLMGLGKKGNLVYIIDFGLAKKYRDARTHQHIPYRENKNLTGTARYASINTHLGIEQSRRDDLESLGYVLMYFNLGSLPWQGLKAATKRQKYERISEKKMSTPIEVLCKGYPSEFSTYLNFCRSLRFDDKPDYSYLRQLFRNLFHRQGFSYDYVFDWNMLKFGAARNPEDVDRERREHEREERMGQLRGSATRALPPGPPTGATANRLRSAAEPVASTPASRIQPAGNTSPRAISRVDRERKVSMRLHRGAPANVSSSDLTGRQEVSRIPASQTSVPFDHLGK

SMILES	remaining activity at 1 µM [1] [%]	remaining activity at 10 µM [1] [%]	remaining activity at 1 µM [2] [%]	remaining activity at 10 µM [2] [%]	remaining activity at 1 µM [3] [%]	IC50 ([3]; PIM1, 10 µM ATP) [µM]	remaining activity at 10 µM [3] [%]	IC50 [3, 7] [µM]	remaining activity at 1 µM [4] [%]	remaining activity at 10 µM [4] [%]	IC50 [4, 8] [µM]	remaining activity at 1 µM [5] [%]	remaining activity at 10 µM [5] [%]	IC50 [6] [µM]	selectivity index (SI) [6]	IC50 ([4]; JAK3, 10 µM ATP) [µM]
CC1(C)CCC2=C(O1)c1ccccc1/C(=N/NC(=S)Nc1ccc([N+](=O)[O-])cc1)C2=O [BV3, 2-(2,2-dimethyl-5-oxo-3,4-dihydro-2H-benzo[h]chromen-6(5H)-ylidene)-N-(4nitrophen-yl)thio-carbohydrazide]	≥ 100	98	52	35	≥ 100	4.15	18	4.16	-3	-9	0.115	≥ 100	≥ 100	16.5	2.66	
Cc1ccc(NC(=S)N/N=C2\C(=O)C3=C(OC(C)(C)CC3)c3ccccc32)cc1 [BV5, 2-(2,2-dimethyl-5-oxo-3,4-dihydro-2H-benzo[h]chromen-6(5H)-ylidene)-N-(p-tolyl)-thiocarbohydrazide]	98	86	83	56	94	8.74	42	8.74	64	4	0.522	≥ 100	≥ 100	15.5		0.52
CC1(C)CCC2=C(O1)c1ccccc1C(=O)C2=O [β-lap, β-Lapachone]	≥ 100	94	83	81	56		42		65	69		≥ 100	91	3.38	1.34	
